Experimental data reported in ChEMBL document CHEMBL2074444, “A comparison of commonly used polyethoxylated pharmaceutical excipients on their ability to inhibit P-glycoprotein activity in vitro” (J Pharm Sci, 2002).
Values belong to the molecule of their own block, whether it stands above or below them.

Legend:
Format in all cases: functional, cell-based
[1] = biological target: T1, ATP-dependent translocase ABCB1 (Homo sapiens, UniProt P08183); test: TP_TRANSPORTER: inhibition of Taxol transepithelial transport (basal to apical) (Taxol: 0.04-0.06 uM, PEG-300: 20 %) in MDR1-expressing MDCK cells; conditions: dog
T1 sequence (P08183 whole entry): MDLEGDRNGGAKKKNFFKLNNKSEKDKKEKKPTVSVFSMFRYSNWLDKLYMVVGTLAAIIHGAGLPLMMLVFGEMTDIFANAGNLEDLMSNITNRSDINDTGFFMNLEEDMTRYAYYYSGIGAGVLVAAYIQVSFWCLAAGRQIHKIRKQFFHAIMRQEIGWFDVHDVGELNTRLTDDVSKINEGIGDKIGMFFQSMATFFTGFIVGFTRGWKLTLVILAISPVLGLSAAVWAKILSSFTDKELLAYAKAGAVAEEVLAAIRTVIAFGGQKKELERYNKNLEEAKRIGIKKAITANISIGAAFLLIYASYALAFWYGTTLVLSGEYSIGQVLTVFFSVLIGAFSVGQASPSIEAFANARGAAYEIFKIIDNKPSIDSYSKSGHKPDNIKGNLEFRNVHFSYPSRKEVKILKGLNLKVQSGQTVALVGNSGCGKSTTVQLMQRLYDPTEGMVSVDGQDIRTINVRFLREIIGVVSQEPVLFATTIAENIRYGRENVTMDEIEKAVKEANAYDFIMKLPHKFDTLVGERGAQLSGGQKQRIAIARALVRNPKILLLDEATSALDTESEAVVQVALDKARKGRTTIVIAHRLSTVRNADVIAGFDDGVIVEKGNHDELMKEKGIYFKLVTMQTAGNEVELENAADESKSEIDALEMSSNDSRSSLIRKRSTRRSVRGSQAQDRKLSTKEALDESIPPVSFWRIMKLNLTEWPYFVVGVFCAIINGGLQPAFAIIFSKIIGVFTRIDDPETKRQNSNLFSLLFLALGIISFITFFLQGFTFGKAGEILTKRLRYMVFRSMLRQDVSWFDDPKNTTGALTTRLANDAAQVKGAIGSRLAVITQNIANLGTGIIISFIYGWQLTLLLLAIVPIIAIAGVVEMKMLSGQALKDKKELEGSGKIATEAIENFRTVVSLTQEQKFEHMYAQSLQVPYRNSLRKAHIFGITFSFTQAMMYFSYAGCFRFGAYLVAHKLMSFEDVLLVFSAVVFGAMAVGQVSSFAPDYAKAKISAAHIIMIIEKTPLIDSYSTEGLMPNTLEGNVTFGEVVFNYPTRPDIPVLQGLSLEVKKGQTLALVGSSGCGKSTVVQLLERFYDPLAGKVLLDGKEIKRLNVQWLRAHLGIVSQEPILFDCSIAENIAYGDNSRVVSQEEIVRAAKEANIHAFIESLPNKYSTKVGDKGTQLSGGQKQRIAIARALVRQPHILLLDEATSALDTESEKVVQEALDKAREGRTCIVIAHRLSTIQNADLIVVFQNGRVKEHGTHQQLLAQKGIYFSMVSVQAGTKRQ

[2] = biological target: T1, ATP-dependent translocase ABCB1; test: TP_TRANSPORTER: inhibition of Taxol transepithelial transport (basal to apical) (Taxol: 0.04-0.06 uM, PEG-300: 20 %) in Caco-2 cells
[3] = biological target: T1, ATP-dependent translocase ABCB1; test: TP_TRANSPORTER: inhibition of Taxol transepithelial transport (basal to apical)(Taxol: 0.04-0.06 uM, Cremophor EL: 0.1 %) in MDR1-expressing MDCK cells; conditions: dog
[4] = biological target: T1, ATP-dependent translocase ABCB1; test: TP_TRANSPORTER: inhibition of Taxol transepithelial transport (basal to apical)(Taxol: 0.04-0.06 uM, Cremophor EL: 0.1 %) in Caco-2 cells
[5] = biological target: T1, ATP-dependent translocase ABCB1; test: TP_TRANSPORTER: inhibition of Taxol transepithelial transport (basal to apical)(Taxol: 0.04-0.06 uM, Tween 80: 0.05 %) in Caco-2 cells
[6] = biological target: T1, ATP-dependent translocase ABCB1; test: TP_TRANSPORTER: inhibition of Taxol transepithelial transport (basal to apical)(Taxol: 0.04-0.06 uM, Tween 80: 0.05 %) in MDR1-expressing MDCK cells; conditions: dog

Activity [1]: inhibitor [+]
Activity [2]: inhibitor [+]
Molecule: PEG 300

Activity [3]: is not an inhibitor [-]
Activity [4]: inhibitor [+]
Molecule: CREMOPHOR EL

Activity [5]: inhibitor [+]
Activity [6]: is not an inhibitor [-]
Molecule: CCCCCCCC/C=C\CCCCCCCC(=O)OCCOCC(OCCO)C1OCC(OCCO)C1OCCO (stereo unspecified) [TWEEN 80]
